Experimental data from patent US11753408B2, “Compounds and method for blocking transmission of malarial parasite” (The United States of America, as represented by the …, priority 2016, dated 2023).
pEC50: −log10 of the molar value. Read-outs that look alike come from different tables or passages of the source.

What was measured:
[1] = tested on: Stage III-V gametocytes (blood stage P. falciparum parasites); assay: In vitro drug activity on gametocytes (AlamarBlue viability assay); assay type: cell-based, Plasmodium falciparum; conditions: for pEC50: read-out: Gametocyte EC50
Method: Cell culture. Asexual parasites of P. falciparum strain 3D7 were cultured as described previously [Trager W, et al., Journal of Parasitology 2005, 91: 484-486], Stage III-V gametocytes were selected and enriched with 3-day treatment with 50 mM N-acetylglucosamine (NAG) and the following Percoll density gradient centrifugation after gametocyte production [Tanaka T Q, et al., Molecular and Biochemical Parasitology, 2011, 111: 160-163], Gametocytes of HB3 and Dd2 strains were produced and then set up for assay in a similar process. HepG2 cells (ATCC, cat. no. 77400) were cultured in 175-cm^2 tissue culture flasks with 30 ml growth medium at 37° C. in a 5% CO2 humidified atmosphere. Growth medium was made with Dulbecco's Modified Eagle Medium with 10% fetal bovine serum (FBS). Growth medium was replaced every other day and cells were passed at 75% confluence.
Compound screening experiments were performed as previously described [Tanaka T Q et al., Molecular and Biochemical Parasitology, 2013, 3188: 20-25], Briefly, 2.5 μl/well incomplete medium was dispensed into each well of 1,536-well plates using the Multidrop Combi followed by 23 nl compound transferring using the NX-TR Pintool (WAKO Scientific Solutions, San Diego, Calif.). 2.5 μl/well of gametocytes was dispensed with a seeding density of 20,000 cells/well using the Multidrop Combi. The assay plates were incubated for 72 h at 37° C. with 5% CO2. After addition of 5 μl/well of 2× AlamarBlue dye (Life Technologies, cat. no. DALI 100), the plates were incubated for 24 h at 37° C. with 5% CO2 and were read in a fluorescence detection mode (Ex=525 nm, Em=598 nm) on a ViewLux plate reader (PerkinElmer).
Stage III-V gametocytes (blood stage P. falciparum parasites) were enriched with treatment with 50 mM N-acetylglucosamine (NAG) and Percoll density gradient centrifugation as described previously^1. Briefly, 2.5 μl/well incomplete medium was dispensed into each well of 1,536-well plates using the Multidrop Combi followed by 23 nl compound transfer using the NX-TR Pintool (WAKO Scientific Solutions, San Diego, Calif.). Then, 2.5 μl/well of gametocytes was dispensed with a seeding density of 20,000 cells/well using the Multidrop Combi. The assay plates were incubated for 72 h at 37° C. with 5% CO2. After addition of 5 μl/well of 2× AlamarBlue dye (Life Technologies, cat. no. DALI 100), the plates were incubated for 24 h at 37° C. with 5% CO2 and then were read in a fluorescence detection mode (Ex=525 nm, Em=598 nm) on a ViewLux plate reader (PerkinElmer).

[2] = tested on: Asexual parasites of P. falciparum strain 3D7; assay: In vitro drug activity on asexual parasites (SYBR Green assay); assay type: cell-based, Plasmodium falciparum
How it was run: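 3D7 parasites at 0.5% parasitemia and 2% hematocrit were exposed to drugs (DMSO ≤0.5%) for 72 h under standard culture conditions, in duplicate. After freeze-thaw lysis, SYBR Green I lysis buffer was added for 30 min at room temperature, and fluorescence was read at 490/520 nm.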

[3] = Solubility at pH 7.4; assay type: physicochemical
[4] = Microsomal stability (rat); assay type: in vitro ADME; conditions: rat microsomes
[5] = target: mTOR (Homo sapiens, UniProt P42345); assay: mTOR activity (no method described); assay type: biochemical
[6] = P. falciparum stage III-V gametocytes, 72 h incubation, AlamarBlue
[7] = P. falciparum 3D7 asexual parasites, 72 h, SYBR Green

| SMILES | pEC50 [1, 6] | pEC50 [2, 7] | Sol @ pH 7.4 (ug/mL) [3] | Microsomal Stability (rat) T1/2 [4] | pEC50 [1] | pEC50 [2] | mTOR [5] | Gametocyte EC50 [1] | Sol @ pH 7.4 [3] |
| --- | --- | --- | --- | --- | --- | --- | --- | --- | --- |
| N#Cc1cccc(-n2c(=O)ccc3cnc4ccc(-c5ccc(Cl)cc5)cc4c32)c1 [Compound 1] | 7.05 | 7.55 |  |  |  |  |  |  |  |
| N#Cc1cc(-n2c(=O)ccc3cnc4ccc(-c5ccc(Cl)cc5)cc4c32)ccc1N1CCOCC1 [Compound 6] | 6.99 |  | 0.02 ug/mL |  |  |  |  |  |  |
| Cc1ccc(C#N)cc1-n1c(=O)ccc2cnc3ccc(-c4ccc(CN(C)C)cc4)cc3c21 [Compound 7] | 7.60 | 7.88 | >66.00 ug/mL |  |  |  |  |  |  |
| Cc1c(C#N)cccc1-n1c(=O)ccc2cnc3ccc(-c4ccc(CN(C)C)cc4)cc3c21 [Compound 10] | 6.33 | 7.14 | >66 ug/mL | 18 min |  |  |  |  |  |
| COc1ccc(C#N)cc1-n1c(=O)ccc2cnc3ccc(-c4ccc(Cl)cc4)cc3c21 [Compound 12] | 6.90 | 7.25 |  |  |  |  |  |  |  |
| COc1ccc(C#N)cc1-n1c(=O)ccc2cnc3ccc(-c4ccc(F)cc4)cc3c21 [Compound 13] | 6.87 | 7.09 | 0 ug/mL |  |  |  |  |  |  |
| COc1ccc(C#N)cc1-n1c(=O)ccc2cnc3ccc(-c4ccc(CN(C)C)cc4)cc3c21 [Compound 14] | 6.37 | 6.95 |  |  |  |  |  |  |  |
| N#Cc1cc(-n2c(=O)ccc3cnc4ccc(-c5ccc(F)cc5)cc4c32)ccc1N1CCNCC1 [Compound 15] | 6.28 | 6.14 |  |  |  |  |  |  |  |
| N#Cc1cc(-n2c(=O)ccc3cnc4ccc(-c5ccc(Cl)cc5)cc4c32)ccc1N1CCNCC1 [Compound 16] | 7.16 | 7.62 |  |  |  |  |  |  |  |
| N#Cc1ccc(-n2c(=O)ccc3cnc4ccc(-c5ccc(N)nc5)cc4c32)cc1 [Compound 22] | 6.94 | 7.46 | <1.0 ug/mL | >30.0 min |  |  |  |  |  |
| CS(=O)(=O)c1ccc(-n2c(=O)ccc3cnc4ccc(-c5ccc(Cl)c(O)c5)cc4c32)cc1 [Compound 26] | 6.75 | 7.42 | 1.2 ug/mL | >30.0 min |  |  |  |  |  |
| CS(=O)(=O)c1ccc(-n2c(=O)ccc3cnc4ccc(-c5ccc(F)cc5)cc4c32)cc1 [Compound 29] | 7.05 | 7.70 | <1.0 ug/mL | >30.0 min |  |  |  |  |  |
| CCN(CC)S(=O)(=O)c1ccc(-n2c(=O)ccc3cnc4ccc(-c5ccc(Cl)cc5)cc4c32)cc1 [Compound 39] | 6.37 | 6.38 | <1.0 ug/mL | 1.7 min |  |  |  |  |  |
| CCNS(=O)(=O)c1ccc(-n2c(=O)ccc3cnc4ccc(-c5ccc(Cl)cc5)cc4c32)cc1 [Compound 41] | 7.05 | 7.64 | <1.0 ug/mL | 6.3 min |  |  |  |  |  |
| O=c1ccc2cnc3ccc(-c4ccc(Cl)cc4)cc3c2n1-c1ccc(S(=O)(=O)NC2CC2)cc1 [Compound 46] | 6.59 | 7.20 | <1.0 ug/mL | 8.3 min |  |  |  |  |  |
| CN(C)Cc1ccc(-c2ccc3ncc4ccc(=O)n(-c5ccc([S+](C)[O-])cc5)c4c3c2)cc1 (stereo not drawn) [Compound 54] | 6.41 | 6.84 | >69.00 ug/mL | 51.7 min |  |  |  |  |  |
| CN(C)Cc1ccc(-c2ccc3ncc4ccc(=O)n(-c5ccc(S(C)(=O)=O)c(N6CCOCC6)c5)c4c3c2)cc1 [Compound 62] | 5.88 | 6.25 | >84.00 ug/mL | >30.00 min |  |  |  |  |  |
| CN(C)Cc1ccc(-c2ccc3ncc4ccc(=O)n(-c5ccc(S(C)(=O)=O)c(Cl)c5)c4c3c2)cc1 [Compound 63] | 6.47 | 6.83 |  |  |  |  |  |  |  |
| Nc1ccc(-c2ccc3ncc4ccc(=O)n(-c5ccc(S(N)(=O)=O)cc5)c4c3c2)cn1 [Compound 78] | 7.94 | 8.21 | <1.0 ug/mL | >30.0 min |  |  |  |  |  |

| SMILES | pEC50 [1, 6] | pEC50 [2, 7] | Sol @ pH 7.4 (ug/mL) [3] | Microsomal Stability (rat) T1/2 [4] | pEC50 [1] | pEC50 [2] | mTOR [5] | Gametocyte EC50 [1] | Sol @ pH 7.4 [3] |
| --- | --- | --- | --- | --- | --- | --- | --- | --- | --- |
| Nc1ccc(-c2ccc3ncc4ccc(=O)n(-c5ccc(S(=O)(=O)NC6CC6)cc5)c4c3c2)cn1 [Compound 82] | 6.78 | 6.82 |  |  |  |  |  |  |  |
| O=C(c1ccc(-n2c(=O)ccc3cnc4ccc(-c5ccccc5)cc4c32)cc1)N1CCOCC1 [Compound 125] |  |  |  |  | 7.40 | 8.09 | 0.5061 µM |  |  |
| O=C(c1ccc(-n2c(=O)ccc3cnc4ccc(-c5ccc(Cl)cc5)cc4c32)c(Cl)c1)N1CCOCC1 [Compound 159] |  |  |  |  | 6.49 | 7.04 | 3.523 µM |  |  |
| NC1(c2ccc(-c3ccc4ncc5ccc(=O)n(-c6ccc(C(=O)N7CCOCC7)cc6)c5c4c3)cc2)CC1 [Compound 178] |  |  |  |  | 6.04 | 6.35 | 5.312 µM |  |  |
| CN1Cc2cc(-n3c(=O)ccc4cnc5ccc(-c6ccc(Cl)cc6)cc5c43)ccc2C1=O [Compound 341] | 7.08 | 7.16 | <1.0 ug/mL | 12.4 min |  |  |  |  |  |
| COC(=O)CN1Cc2cc(-n3c(=O)ccc4cnc5ccc(-c6ccc(Cl)cc6)cc5c43)ccc2C1=O [Compound 345] | 5.42 |  |  | <1.0 min |  |  |  |  |  |
| O=C1Cc2cc(-n3c(=O)ccc4cnc5ccc(-c6ccc(Cl)cc6)cc5c43)ccc2N1 [Compound 346] | 7.32 | 7.73 |  |  |  |  |  |  |  |
| CN(C)Cc1ccc(-c2ccc3ncc4ccc(=O)n(-c5ccc6c(c5)CC(=O)N6)c4c3c2)cc1 [Compound 350] | 6.00 | 6.26 | >68.0 ug/mL |  |  |  |  |  |  |
| CCN1Cc2cc(-n3c(=O)ccc4cnc5ccc(-c6ccc(Cl)cc6)cc5c43)ccc2C1=O [Compound 351] | 5.67 | 6.81 |  |  |  |  |  |  |  |
| O=C1c2ccc(-n3c(=O)ccc4cnc5ccc(-c6ccc(Cl)cc6)cc5c43)cc2CN1C1CC1 [Compound 353] | 5.60 | 6.23 | 0 ug/mL | >30.0 min |  |  |  |  |  |
| CN(C)Cc1ccc(-c2ccc3ncc4ccc(=O)n(-c5ccc6c(c5)CN(CC(=O)O)C6=O)c4c3c2)cc1 [Compound 355] | 4.54 | 5.69 | >77.0 ug/mL | >30.0 min |  |  |  |  |  |
| O=C1CCc2cc(-n3c(=O)ccc4cnc5ccc(-c6ccc(Cl)cc6)cc5c43)ccc2N1 [Compound 356] | 7.18 | 7.60 | <0.10 ug/mL | >30.00 min |  |  |  |  |  |
| CN1C(=O)CCc2cc(-n3c(=O)ccc4cnc5ccc(-c6ccc(Cl)cc6)cc5c43)ccc21 [Compound 359] | 6.89 | 7.63 | 0.06 ug/mL | 14.9 min |  |  |  |  |  |
| O=C1NCCc2cc(-n3c(=O)ccc4cnc5ccc(-c6ccc(Cl)cc6)cc5c43)ccc21 [Compound 367] | 6.98 | 7.54 | 0 ug/mL | 12.8 min |  |  |  |  |  |
| O=C1Cc2ccc(-n3c(=O)ccc4cnc5ccc(-c6ccc(Cl)cc6)cc5c43)cc2N1 [Compound 376] | 6.70 | 6.94 | 0 ug/mL |  |  |  |  |  |  |
| NCCc1ccc(-c2ccc3ncc4ccc(=O)n(-c5ccc6c(c5)CNC6=O)c4c3c2)cc1 [Compound 377] | 6.42 |  | 0 ug/mL |  |  |  |  |  |  |
| Nc1ccc(-c2ccc3ncc4ccc(=O)n(-c5ccc6c(c5)CCC(=O)N6)c4c3c2)cn1 [Compound 391] | 7.25 | 7.91 | 10 ug/mL | >30.00 min |  |  |  |  |  |
| N#Cc1ccc(-n2c(=O)[nH]c3cnc4ccc(-c5ccc(Cl)cc5)cc4c32)cc1 [Compound 434] |  |  |  | 11.3 min |  | 4.35 |  | Inactive | <1.0 ug/mL |
